According to BigSolDB 2.1:

O=C(CN1C(=O)S/C(=C\c2ccc(Cl)cc2)C1=O)N1CCN(CC(O)(Cn2cncn2)c2cc(F)ccc2F)CC1 (stereo not given)
solubility (mole fraction)
Details | 293.15 K | 298.15 K | 303.15 K | 308.15 K | 313.15 K
in ethanol | 0.000161 | 0.0002 | 0.000254 | 0.000312 | 0.000377
in n-hexane | 2.34e-06 | 3.14e-06 | 4.1e-06 | 5.16e-06 | 6.28e-06
in n-octanol | 0.00047 | 0.000578 | 0.000723 | 0.000882 | 0.00115
